Source: PubChem BioAssay (NCI)
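Cultured in 96-well plates, cells were exposed to test compound for 48 hours across five concentrations. Definition used: TGI = concentration required for complete inhibition of growth.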

Experiments:
Assay in all cases: NCI-60 cell line screen, 48 h
786-0 renal = test system: 786-0 renal
A498 renal = test system: A498 renal
A549 NSCLC = test system: A549 NSCLC
ACHN renal = test system: ACHN renal
CAKI-1 renal = test system: CAKI-1 renal
CCRF-CEM leukemia = test system: CCRF-CEM leukemia
COLO 205 colon = test system: COLO 205 colon
DLD-1 colon = test system: DLD-1 colon
DMS 114 small cell lung = test system: DMS 114 small cell lung
DMS 273 small cell lung = test system: DMS 273 small cell lung
EKVX NSCLC = test system: EKVX NSCLC
HCC-2998 colon = test system: HCC-2998 colon
HCT-116 colon = test system: HCT-116 colon
HOP-18 NSCLC = test system: HOP-18 NSCLC
HOP-62 NSCLC = test system: HOP-62 NSCLC
HOP-92 NSCLC = test system: HOP-92 NSCLC
IGROV1 ovarian = test system: IGROV1 ovarian
K-562 leukemia = test system: K-562 leukemia
KM12 colon = test system: KM12 colon
LOX IMVI melanoma = test system: LOX IMVI melanoma
LXFL 529 NSCLC = test system: LXFL 529 NSCLC
M14 melanoma = test system: M14 melanoma
M19-MEL melanoma = test system: M19-MEL melanoma
MALME-3M melanoma = test system: MALME-3M melanoma
MOLT-4 leukemia = test system: MOLT-4 leukemia
NCI-H226 lung = test system: NCI-H226 lung
NCI-H23 lung = test system: NCI-H23 lung
NCI-H460 lung = test system: NCI-H460 lung
NCI-H522 lung = test system: NCI-H522 lung
OVCAR-4 ovarian = test system: OVCAR-4 ovarian
OVCAR-5 ovarian = test system: OVCAR-5 ovarian
OVCAR-8 ovarian = test system: OVCAR-8 ovarian
RPMI-8226 leukemia = test system: RPMI-8226 leukemia
RXF 393 renal = test system: RXF 393 renal
RXF-631 renal = test system: RXF-631 renal
SF-268 CNS = test system: SF-268 CNS
SF-295 CNS = test system: SF-295 CNS
SF-539 CNS = test system: SF-539 CNS
SK-MEL-2 melanoma = test system: SK-MEL-2 melanoma
SK-MEL-28 melanoma = test system: SK-MEL-28 melanoma
SK-MEL-5 melanoma = test system: SK-MEL-5 melanoma
SK-OV-3 ovarian = test system: SK-OV-3 ovarian
SN12C renal = test system: SN12C renal
SNB-19 CNS = test system: SNB-19 CNS
SNB-75 CNS = test system: SNB-75 CNS
SNB-78 CNS = test system: SNB-78 CNS
SR leukemia = test system: SR leukemia
SW-620 colon = test system: SW-620 colon
TK-10 renal = test system: TK-10 renal
U251 CNS = test system: U251 CNS
UACC-257 melanoma = test system: UACC-257 melanoma
UACC-62 melanoma = test system: UACC-62 melanoma
UO-31 renal = test system: UO-31 renal
XF 498 CNS = test system: XF 498 CNS

COc1ccc(-c2nc(Sc3c([N+](=O)[O-])ncn3C)n[nH]2)cc1
TGI (786-0 renal): 13.8 µM
TGI (A498 renal): 37.6 µM
TGI (A549 NSCLC): > 100 µM
TGI (ACHN renal): 23.1 µM
TGI (CAKI-1 renal): > 100 µM
TGI (CCRF-CEM leukemia): 40.2 µM
TGI (COLO 205 colon): 3.28 µM
TGI (DLD-1 colon): 6.82 µM
TGI (DMS 114 small cell lung): 6.64 µM
TGI (DMS 273 small cell lung): 4.77 µM
TGI (EKVX NSCLC): > 100 µM
TGI (HCC-2998 colon): 30.2 µM
TGI (HCT-116 colon): > 100 µM
TGI (HOP-18 NSCLC): 5.53 µM
TGI (HOP-62 NSCLC): 89.9 µM
TGI (HOP-92 NSCLC): 8.88 µM
TGI (IGROV1 ovarian): 77.3 µM
TGI (K-562 leukemia): > 100 µM
TGI (KM12 colon): 4.31 µM
TGI (LOX IMVI melanoma): 7.92 µM
TGI (LXFL 529 NSCLC): 13 µM
TGI (M14 melanoma): 4.96 µM
TGI (M19-MEL melanoma): > 100 µM
TGI (MALME-3M melanoma): 9.9 µM
TGI (MOLT-4 leukemia): 9.56 µM
TGI (NCI-H226 lung): 38.1 µM
TGI (NCI-H23 lung): 3.97 µM
TGI (NCI-H460 lung): 69.1 µM
TGI (NCI-H522 lung): 5.75 µM
TGI (OVCAR-4 ovarian): 81.2 µM
TGI (OVCAR-5 ovarian): > 100 µM
TGI (OVCAR-8 ovarian): 5.4 µM
TGI (RPMI-8226 leukemia): 23.9 µM
TGI (RXF 393 renal): 4.28 µM
TGI (RXF-631 renal): 22.2 µM
TGI (SF-268 CNS): 21.1 µM
TGI (SF-295 CNS): 16.5 µM
TGI (SF-539 CNS): 4.18 µM
TGI (SK-MEL-2 melanoma): 4.95 µM
TGI (SK-MEL-28 melanoma): 22 µM
TGI (SK-MEL-5 melanoma): 6.83 µM
TGI (SK-OV-3 ovarian): > 100 µM
TGI (SN12C renal): 8.23 µM
TGI (SNB-19 CNS): 39.3 µM
TGI (SNB-75 CNS): > 100 µM
TGI (SNB-78 CNS): > 100 µM
TGI (SR leukemia): 37.3 µM
TGI (SW-620 colon): > 100 µM
TGI (TK-10 renal): 44.2 µM
TGI (U251 CNS): 5.55 µM
TGI (UACC-257 melanoma): 39.2 µM
TGI (UACC-62 melanoma): 11.1 µM
TGI (UO-31 renal): > 100 µM
TGI (XF 498 CNS): 9.78 µM
